Active and inactive are the calls of the source. The rule behind the calls is not given here.
Tests used:
Rattus norvegicus [1] = test: Antidiabetic activity in Zucker fa/fa rat assessed as decrease in free fatty acid levels at 1 mg/kg, po once daily for 7 days; format: functional, organism-based; design: dose 1 mg/kg
Mus musculus [2] = test: Antidiabetic activity in ob/ob mouse assessed as reduction in plasma triglyceride levels at 3 mg/kg, po once daily for 5 days relative to control; format: functional; design: scale not given: the % may be the effect or the level left
Rattus norvegicus [3] = test: Toxicity in Sprague-Dawley rat assessed as increase in brown adipose tissue weight at 60 mg/kg, po once daily for 14 days; format: organism-based; design: dose 60 mg/kg, route oral; details: in vivo, 336 h
[4] = AUC in Syrian golden hamster at 0.3 mg/kg, po once daily for 9 days; format: ADME, organism-based, Mesocricetus auratus; design: dose 0.3 mg/kg, route oral; details: plasma
Rattus norvegicus [5] = test: Antidiabetic activity in Zucker fa/fa rat assessed as decrease in triglyceride levels at 10 mg/kg, po once daily for 7 days; format: functional, organism-based; design: dose 10 mg/kg
[6] = AUC in C57BLKS/J-m+/+Leprdb db/db mouse at 3 mg/kg, po once daily for 11 days; format: ADME, organism-based; design: dose 3 mg/kg, route oral; details: plasma
Mus musculus [7] = test: Antidiabetic activity in C57BLKS/J-m+/+Leprdb db/db mouse assessed as reduction in plasma triglyceride levels at 3 mg/kg, po once daily for 11 days relative to control; format: functional; design: scale not given: the % may be the effect or the level left
Rattus norvegicus [8] = test: Toxicity in Sprague-Dawley rat assessed as increase albumin/globulin levels at 60 mg/kg, po once daily for 14 days; format: organism-based; design: dose 60 mg/kg, route oral; details: in vivo, 336 h
[9] = target: Estrogen receptor beta (Homo sapiens) (UniProt Q92731); test: Binding affinity to ERbeta up to 10 uM
Canis familiaris = test: Antidiabetic activity in Beagle dog assessed as reduction in total cholesterol level at 1 mg/kg, po once daily for 14 days relative to control; format: functional, Canis lupus familiaris; design: scale not given: the % may be the effect or the level left
Rattus norvegicus [10] = test: Antidiabetic activity in Zucker fa/fa rat assessed as decrease in free fatty acid levels at 0.3 mg/kg, po once daily for 7 days; format: functional, organism-based; design: dose 0.3 mg/kg
Mus musculus [11] = test: Antidiabetic activity in high fat diet-fed streptozotocin-treated mouse assessed as reduction in plasma glucose levels at 30 mg/kg, po once daily for 12 days relative to control; format: functional; design: scale not given: the % may be the effect or the level left
Rattus norvegicus [12] = test: Toxicity in Sprague-Dawley rat assessed as increase in liver weight at 60 mg/kg, po once daily for 14 days; format: organism-based; design: dose 60 mg/kg, route oral; details: in vivo, 336 h
Mus musculus [13] = test: Antidiabetic activity in C57BLKS/J-m+/+Leprdb db/db mouse assessed as reduction in plasma triglyceride levels at 1 mg/kg, po once daily for 11 days relative to control; format: functional; design: scale not given: the % may be the effect or the level left
Rattus norvegicus [14] = test: Antidiabetic activity in Zucker fa/fa rat assessed as decrease in triglyceride levels at 1 mg/kg, po once daily for 7 days; format: functional, organism-based; design: dose 1 mg/kg
[15] = target: Oxysterols receptor LXR-beta (Homo sapiens) (UniProt P55055); test: Activity at LXRbeta receptor up to 10 uM by transactivation assay
Mus musculus [16] = test: Antidiabetic activity in ob/ob mouse assessed as reduction in plasma triglyceride levels at 10 mg/kg, po once daily for 5 days relative to control; format: functional; design: scale not given: the % may be the effect or the level left
[17] = AUC in Syrian golden hamster at 1 mg/kg, po once daily for 9 days; format: ADME, organism-based, Mesocricetus auratus; design: dose 1 mg/kg, route oral; details: plasma
[18] = target: T1, Peroxisome proliferator-activated receptor gamma (Homo sapiens, UniProt P37231)
T1 sequence (P37231 whole entry): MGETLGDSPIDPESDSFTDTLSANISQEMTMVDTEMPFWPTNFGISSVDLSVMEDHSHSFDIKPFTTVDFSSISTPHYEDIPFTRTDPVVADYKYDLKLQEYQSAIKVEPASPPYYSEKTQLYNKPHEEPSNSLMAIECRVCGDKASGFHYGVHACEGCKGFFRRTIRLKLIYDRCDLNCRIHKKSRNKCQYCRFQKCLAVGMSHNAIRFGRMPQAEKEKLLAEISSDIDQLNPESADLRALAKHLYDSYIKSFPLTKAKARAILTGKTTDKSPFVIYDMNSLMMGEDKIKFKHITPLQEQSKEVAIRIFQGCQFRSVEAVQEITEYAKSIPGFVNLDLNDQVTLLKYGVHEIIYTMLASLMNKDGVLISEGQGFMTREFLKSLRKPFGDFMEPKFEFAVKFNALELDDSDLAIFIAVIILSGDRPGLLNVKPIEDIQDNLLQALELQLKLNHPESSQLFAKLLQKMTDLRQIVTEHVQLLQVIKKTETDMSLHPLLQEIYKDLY
Description: Inhibition of human PPARgamma receptor by scintillation proximity assay

[19] = target: Oxysterols receptor LXR-alpha (Homo sapiens) (UniProt Q13133); test: Binding affinity to LXRalpha up to 10 uM
[20] = target: T2, Peroxisome proliferator-activated receptor alpha (Homo sapiens, UniProt Q07869); format: functional, cell-based, COS-1
T2 sequence (Q07869 whole entry): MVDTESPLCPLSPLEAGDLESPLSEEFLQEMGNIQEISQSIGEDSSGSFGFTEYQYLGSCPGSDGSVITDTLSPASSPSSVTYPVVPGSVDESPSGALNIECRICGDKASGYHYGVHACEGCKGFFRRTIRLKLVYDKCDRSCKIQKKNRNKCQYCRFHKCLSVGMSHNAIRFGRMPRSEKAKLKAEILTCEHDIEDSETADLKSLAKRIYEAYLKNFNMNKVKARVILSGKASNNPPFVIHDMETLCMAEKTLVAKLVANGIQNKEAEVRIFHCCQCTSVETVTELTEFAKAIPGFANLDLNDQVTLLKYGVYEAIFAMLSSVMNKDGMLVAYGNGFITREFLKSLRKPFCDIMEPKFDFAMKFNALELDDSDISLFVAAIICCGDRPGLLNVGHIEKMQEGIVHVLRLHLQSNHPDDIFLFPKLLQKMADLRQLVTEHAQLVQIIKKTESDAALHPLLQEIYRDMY
Description: Agonist activity at human PPARalpha receptor expressed in african green monkey COS1 cells co-transfected with fused yeast Gal4-DBD by transactivation assay

Syrian golden hamster = test: Antidiabetic activity in Syrian golden hamster assessed as reduction in triglyceride level at 0.3 mg/kg, po once daily for 9 days relative to control; format: functional, Mesocricetus auratus; design: scale not given: the % may be the effect or the level left
[21] = AUC in Beagle dog at 1 mg/kg, po once daily for 14 days; format: ADME, organism-based, Canis lupus familiaris; design: dose 1 mg/kg, route oral; details: plasma
Mus musculus [22] = test: Antidiabetic activity in high fat diet-fed streptozotocin-treated mouse assessed as reduction in plasma glucose levels at 5 mg/kg, po once daily for 12 days relative to control; format: functional; design: scale not given: the % may be the effect or the level left
Rattus norvegicus [23] = test: Antidiabetic activity in Zucker fa/fa rat assessed as decrease in triglyceride levels at 0.03 mg/kg, po once daily for 7 days; format: functional, organism-based; design: dose 0.03 mg/kg
[24] = Agonist activity at hamster PPARalpha receptor; format: functional, Cricetinae
[25] = target: Nuclear receptor subfamily 1 group I member 2 (Homo sapiens, UniProt O75469); test: Activity at PXR receptor up to 10 uM by transactivation assay
[26] = target: Thyroid hormone receptor beta (Homo sapiens) (UniProt P10828); test: Activity at TRbeta receptor up to 10 uM by transactivation assay
[27] = Cmax in Syrian golden hamster at 3 mg/kg, po once daily for 9 days; format: ADME, organism-based, Mesocricetus auratus; design: dose 3 mg/kg, route oral; details: in vivo
[28] = Cmax in C57BLKS/J-m+/+Leprdb db/db mouse at 3 mg/kg, po once daily for 11 days; format: ADME, organism-based; design: dose 3 mg/kg, route oral; details: in vivo
Rattus norvegicus [29] = test: Antidiabetic activity in Zucker fa/fa rat assessed as decrease in free fatty acid levels at 10 mg/kg, po once daily for 7 days; format: functional, organism-based; design: dose 10 mg/kg
[30] = target: Retinoic acid receptor RXR-alpha (Homo sapiens) (UniProt P19793); test: Activity at RXRalpha receptor up to 10 uM by transactivation assay
Retinoic acid receptor RXR-alpha (Homo sapiens), sequence (P19793 whole entry): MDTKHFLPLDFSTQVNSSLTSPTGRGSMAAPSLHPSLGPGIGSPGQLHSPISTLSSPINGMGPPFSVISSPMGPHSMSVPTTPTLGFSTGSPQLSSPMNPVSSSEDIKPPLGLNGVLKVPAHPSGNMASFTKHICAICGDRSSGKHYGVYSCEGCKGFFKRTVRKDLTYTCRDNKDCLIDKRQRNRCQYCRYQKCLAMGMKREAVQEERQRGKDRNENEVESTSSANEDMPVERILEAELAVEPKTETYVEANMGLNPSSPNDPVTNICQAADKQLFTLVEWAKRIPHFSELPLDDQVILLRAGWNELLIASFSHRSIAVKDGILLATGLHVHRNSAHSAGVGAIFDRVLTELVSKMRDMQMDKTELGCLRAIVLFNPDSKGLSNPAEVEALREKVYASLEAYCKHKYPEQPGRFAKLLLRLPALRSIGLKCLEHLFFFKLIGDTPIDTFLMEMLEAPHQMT

Oxysterols receptor LXR-beta (Homo sapiens), sequence (P55055 whole entry): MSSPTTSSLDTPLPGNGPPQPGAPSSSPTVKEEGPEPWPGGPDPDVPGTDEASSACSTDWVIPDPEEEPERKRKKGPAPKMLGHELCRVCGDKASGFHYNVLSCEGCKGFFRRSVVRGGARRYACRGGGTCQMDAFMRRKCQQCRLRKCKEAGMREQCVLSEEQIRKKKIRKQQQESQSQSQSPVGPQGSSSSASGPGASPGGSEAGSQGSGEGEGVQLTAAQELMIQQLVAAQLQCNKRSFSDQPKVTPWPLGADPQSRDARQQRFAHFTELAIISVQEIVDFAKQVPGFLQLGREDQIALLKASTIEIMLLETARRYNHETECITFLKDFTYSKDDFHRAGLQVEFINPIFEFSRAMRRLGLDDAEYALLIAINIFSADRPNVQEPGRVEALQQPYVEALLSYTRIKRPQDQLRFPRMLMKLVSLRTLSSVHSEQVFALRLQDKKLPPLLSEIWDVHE
Estrogen receptor beta (Homo sapiens), sequence (Q92731 whole entry): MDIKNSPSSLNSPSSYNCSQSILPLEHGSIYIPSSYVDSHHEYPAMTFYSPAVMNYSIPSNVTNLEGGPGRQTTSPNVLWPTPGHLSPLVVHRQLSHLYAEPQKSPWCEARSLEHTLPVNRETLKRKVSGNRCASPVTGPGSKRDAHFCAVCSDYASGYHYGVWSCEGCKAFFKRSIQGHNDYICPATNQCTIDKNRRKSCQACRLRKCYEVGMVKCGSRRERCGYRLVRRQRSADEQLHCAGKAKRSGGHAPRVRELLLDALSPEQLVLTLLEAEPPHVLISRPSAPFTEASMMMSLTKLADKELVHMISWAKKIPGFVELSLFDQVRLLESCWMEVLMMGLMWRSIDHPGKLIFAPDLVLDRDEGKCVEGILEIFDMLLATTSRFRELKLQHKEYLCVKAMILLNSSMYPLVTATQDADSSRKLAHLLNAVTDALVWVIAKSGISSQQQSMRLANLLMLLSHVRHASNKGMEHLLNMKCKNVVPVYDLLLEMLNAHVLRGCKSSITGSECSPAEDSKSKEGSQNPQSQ
Thyroid hormone receptor beta (Homo sapiens), sequence (P10828 whole entry): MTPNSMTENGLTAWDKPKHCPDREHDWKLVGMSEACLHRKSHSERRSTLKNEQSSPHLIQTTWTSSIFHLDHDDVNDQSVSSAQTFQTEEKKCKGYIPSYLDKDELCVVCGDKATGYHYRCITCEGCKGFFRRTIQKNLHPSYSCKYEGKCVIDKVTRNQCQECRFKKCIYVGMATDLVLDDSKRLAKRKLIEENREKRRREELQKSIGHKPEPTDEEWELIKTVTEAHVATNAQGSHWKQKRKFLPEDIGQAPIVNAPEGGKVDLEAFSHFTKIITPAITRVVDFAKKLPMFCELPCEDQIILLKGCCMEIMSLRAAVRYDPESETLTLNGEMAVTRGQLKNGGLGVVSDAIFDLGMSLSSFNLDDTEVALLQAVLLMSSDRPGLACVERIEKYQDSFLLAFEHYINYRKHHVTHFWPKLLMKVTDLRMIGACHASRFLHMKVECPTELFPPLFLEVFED
Oxysterols receptor LXR-alpha (Homo sapiens), sequence (Q13133 whole entry): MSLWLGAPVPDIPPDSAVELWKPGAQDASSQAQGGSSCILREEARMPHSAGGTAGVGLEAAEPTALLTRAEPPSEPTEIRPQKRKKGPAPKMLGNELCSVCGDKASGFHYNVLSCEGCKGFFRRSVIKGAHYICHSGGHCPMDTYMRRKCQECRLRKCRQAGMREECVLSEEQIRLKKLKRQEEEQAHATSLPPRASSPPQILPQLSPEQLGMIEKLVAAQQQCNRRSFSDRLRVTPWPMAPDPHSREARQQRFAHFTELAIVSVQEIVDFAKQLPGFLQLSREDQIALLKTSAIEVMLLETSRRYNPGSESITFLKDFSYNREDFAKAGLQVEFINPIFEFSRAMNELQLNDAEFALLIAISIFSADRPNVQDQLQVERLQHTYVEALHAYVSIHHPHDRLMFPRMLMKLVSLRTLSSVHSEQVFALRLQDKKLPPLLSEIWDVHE
Nuclear receptor subfamily 1 group I member 2, sequence (O75469 whole entry): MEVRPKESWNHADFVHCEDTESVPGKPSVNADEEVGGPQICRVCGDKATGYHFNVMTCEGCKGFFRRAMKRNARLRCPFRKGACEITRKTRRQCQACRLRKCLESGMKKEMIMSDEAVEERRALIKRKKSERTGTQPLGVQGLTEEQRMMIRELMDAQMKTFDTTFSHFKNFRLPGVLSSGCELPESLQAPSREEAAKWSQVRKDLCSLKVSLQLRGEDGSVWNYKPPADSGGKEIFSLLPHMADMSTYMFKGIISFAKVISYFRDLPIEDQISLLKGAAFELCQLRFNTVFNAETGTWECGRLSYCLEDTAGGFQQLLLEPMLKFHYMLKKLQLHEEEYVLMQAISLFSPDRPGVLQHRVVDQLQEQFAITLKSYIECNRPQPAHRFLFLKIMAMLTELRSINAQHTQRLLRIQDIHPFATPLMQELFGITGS

Compound: CC[C@@H](Oc1cccc(Cn2c(C)c(C(=O)c3ccc(Cl)cc3)c3ccc(OC(F)(F)F)cc32)c1)C(=O)O
- Activity (Rattus norvegicus [1]): Active
- Activity (Mus musculus [2]): 27%
- Activity (Rattus norvegicus [3]): 32%
- AUC at 216 h [4]: 0.13 µM·h
- Activity (Rattus norvegicus [5]): Active
- AUC at 264 h [6]: 6.4 µM·h
- Activity (Mus musculus [7]): 85%
- Activity (Rattus norvegicus [8]): 45%
- Activity [9]: inactive
- Activity (Canis familiaris): 12.8%
- Activity (Rattus norvegicus [10]): Active
- Activity (Mus musculus [11]): 103%
- Activity (Rattus norvegicus [12]): 127%
- Activity (Mus musculus [13]): 75%
- Activity (Rattus norvegicus [14]): Active
- Activity [15]: inactive
- Activity (Mus musculus [16]): 50%
- AUC at 216 h [17]: 0.55 µM·h
- IC50 [18]: 9 nM
- Activity [19]: inactive
- EC50 [20]: 230 nM
- Activity (Syrian golden hamster): 10.1%
- AUC at 336 h [21]: 5.41 µM·h
- Activity (Mus musculus [22]): 75%
- Activity (Rattus norvegicus [23]): Active
- EC50 [24]: 0.46 nM
- Activity [25]: Not Active
- Activity [26]: inactive
- Cmax [27]: 600 nM
- Cmax [28]: 5400 nM
- Activity (Rattus norvegicus [29]): Active
- Activity [30]: inactive
